For 25 compounds, melting point results are on record in US6436943B1 (dated 2002).

Molecules are shown by their SMILES.

In general, melting point refers to the temperature of the solid-liquid transition.

`COOCC1=C(C)NC(c2ccccn2)=NC1c1ccccc1O` (stereo not shown) displayed a melting point of 131 to 132 °C.
To `COOCC1=C(C)NC(c2ccccn2)=NC1c1cccc([N+](=O)[O-])c1` (stereo not shown) belongs 179 to 180 °C; to `COC(=O)C1=C(C)NC(c2ccccn2)=NC1C1CCCCC1.Cl` (stereo not shown), 149 to 150 °C.
To `COC(=O)C1=C(C)NC(c2ccccn2)=NC1c1cccc2ncc(-c3ccccc3)cc12` (stereo not shown) belongs 176 to 177 °C.
To `COOCC1=C(C)NC(c2ccccn2)=NC1c1cccc(Cl)c1` (stereo not shown) belongs 122 to 123 °C; to `COC(=O)C1=C(C)NC(c2ccccn2)=NC1c1ccc(F)cc1[N+](=O)[O-]` (stereo not shown), 175 to 176 °C.
For `CC1=C(C(=O)OC(C)C)C(c2ccccc2Cl)N=C(c2ccccn2)N1` (stereo not shown), the melting point lay in the range of 93 to 95 °C.
The value for `COC(=O)C1=C(C)NC(c2ccccn2)=NC1c1ccccc1OC` (stereo not shown) was 103 to 104 °C.
The value for `CCOC(=O)C1=C(C)NC(c2ccccn2)=NC1c1ccccc1` (stereo not shown) was 101 to 103 °C; that for `CCOC(=O)C1=C(C)NC(c2ccncc2)=NC1c1ccccc1Cl` (stereo not shown) was 101 to 103 °C.
Compound `COOCC1=C(C)NC(c2ccccn2)=NC1c1ccco1` (stereo not shown) gave a melting point of 122 to 124 °C.
The value for `COC(=O)C1=C(C)NC(c2ccccn2)=NC1c1cc([N+](=O)[O-])ccc1Cl` (stereo not shown) was 151 to 153 °C.
Regarding `COC(=O)C1=C(C)NC(c2ccccn2)=NC1c1ccccc1C` (stereo not shown), the melting point fell in the range of 100 to 101 °C.
As to `COC(=O)C1=C(C)NC(c2ccccn2)=NC1c1ccc(C#N)cc1` (stereo not shown), the melting point was in the range of 141 to 143 °C.
In turn, `COC(=O)C1=C(C)NC(c2ccccn2)=NC1c1ccccc1F` (stereo not shown) displayed a melting point of 217 to 218 °C.
`COC(=O)C1=C(C)NC(c2cccnc2)=NC1c1ccccc1Cl` (stereo not shown) yielded a melting point of 131 to 133 °C.
The value for `COC(=O)C1=C(C)NC(c2ccccn2)=NC1c1cccc(Cl)c1Cl` (stereo not shown) was 125 to 127 °C.
Take `CCCOOCC1=C(C)NC(c2ccccn2)=NC1c1ccccc1Cl` (stereo not shown): the melting point is 105 to 110 °C.
The value for `CC1=C(C(=O)OCCC#N)C(c2ccccc2Cl)N=C(c2ccccn2)N1` (stereo not shown) was 138 to 139 °C; that for `COC(=O)C1=C(C)NC(c2ccccn2)=NC1c1ccc(-n2ccnn2)cc1` (stereo not shown) was 149 to 150 °C; that for `COC(=O)C1=C(C)NC(c2ccccn2)=NC1c1ccc(Cl)cc1` (stereo not shown) was 201 to 202 °C.
To `COC(=O)C1=C(C)NC(c2ccccn2)=NC1c1ccccc1[N+](=O)[O-]` (stereo not shown) belongs 167 to 168 °C.
To `COC(=O)C1=C(C)NC(c2ccccn2)=NC1c1ccsc1` (stereo not shown) belongs 108 to 109 °C; to `COC(=O)C1=C(C)NC(c2ccccn2)=NC1c1cccc2sc(-c3ccccc3)nc12` (stereo not shown), 172 to 173 °C.
`CCCCOC(=O)C1=C(C)NC(c2ccccn2)=NC1c1ccccc1Cl` (stereo not shown): the melting point lay in the range of 176 to 178 °C.
